Values of other authors as cited in patent publication US20220273015A1, “FORMULATIONS AND USES THEREOF” (priority 2021, published 2022).
Entries after “also recorded” stand apart in the source; their conditions may differ.

Legend:
[1] = for Properties: properties in words from a review of the primary literature (PMIDs in the cell), wrapped cell lines; for Stability: best preserved in an alcoholic tincture
[2] = test system: atypical/precancerous stem cells; conditions: used separately or together in one study
[3] = <1 ug daily, postoperative control of analgesia

For `O=c1c(O)c(-c2ccc(O)c(O)c2)oc2cc(O)cc(O)c12` [Quercetin], the “Anti-cancer / cytotoxic / antitumor properties” value ([1]; qualitative, PMID-cited) is listed as “antitumor effects PMID 31880372) the ability”.

In the case of `O=C(O)CCCCC1CCSS1` (stereo not drawn) [Alpha-Lipoic Acid], the “blood flow to damaged nerves, nerve conduction velocity, and other measures of nerve function” value ([1]; PMID 25381809) is given as “microcirculation (PMID 160261130), improves”, the diabetic polyneuropathy ([1]; PMID 160261130) is given as “improving” and the microcirculation ([1]; PMID 160261130) is given as “oxidative stress, aging, cancer, improves”. The “oxidative stress, aging, cancer” value ([1]; PMID 160261130) was “reducing” and the “antioxidant protection of lipids” value ([1]; such as those found in the myelin sheath of neurons) was “Antioxidant which specifically protects lipids”.

For `CC(=O)N[C@@H](CS)C(=O)O` [N-Acetyl Cysteine (NAC)], the Properties [1] is given as “completely blocks Reactive Oxygen Species”.

In the case of `CCCCCCCCCCCCCCCCCC(=O)O` [Stearic acid], the “Metabolic and cardiovascular effects (lipids, blood pressure, glucose, clotting)” value ([1]; qualitative, PMID-cited) is given as 10945745) and can increase the “good” and the “Wound healing / skin repair and skin health” value ([1]; qualitative, PMID-cited) is given as “a saturated fatty acid beneficial to skin; also recorded: important in wound healing of burns (PMID”.

For `C=C(C)[C@H]1CC=C(C)CC1` [D-limonene], the “Antimicrobial, antiparasitic, insecticidal / insect repellent properties” value ([1]; qualitative, PMID-cited) is listed as “a result. D-limonene has antimicrobial” and the “Effects in animal models” value ([1]; qualitative, rodent/animal models, PMID-cited) is listed as “more capable. D-limonene has a mild diuretic”.

For `O=C(O)c1cc(O)c(O)c(O)c1` [Gallic Acid], the “antioxidant, anti-inflammatory, anti-microbial, anti-cancer activities” value ([1]; PMID 30657034) is listed as “Powerful antioxidant, anti-inflammatory, anti-”, the “preventing and treating acne” value ([1]; PMID 32390309, PMID 30617549) is listed as 23501608). Useful in preventing and treating and the “inhibitory properties against cancer” value ([1]; in vitro and in vivo, PMID 23501608) is listed as “Plant polyphenol with strong inhibitory”. The “NFKB, Akt, COX, ribonucleotide reductase and GSH pathways” value ([1]; mechanism of anti-cancer effect, PMID 23501608) was “(PMID 23501608) by inhibition of NFKB, Akt,” and the ATM kinase signaling ([1]; to prevent carcinogenesis, PMID 23501608) was “pathways; and also activates ATM kinase”.

In the case of `CC(C)=CCC[C@](C)(O)C1CC=C(C)CC1` (stereo partly drawn) [bisabolol], the Stability [1] is given as “are very unstable and are best preserved in an”.

In the case of Vitamin E, the Properties [1] is listed as “skin barrier stabilizing properties (PMID”.

In the case of `CCCCC/C=C\C/C=C\CCCCCCCC(=O)O` [linoleic acid], the Safety / toxicity ([1]; qualitative) is listed as “in high quantities is associated with higher rates” and the “Wound healing / skin repair and skin health” value ([1]; qualitative, PMID-cited) is listed as “polyunsaturated fat that improves skin barrier”.

For `CCCCC/C=C\C/C=C\CCCCCCCC(=O)O` [Linoleic acid], the “Wound healing / skin repair and skin health” value ([1]; qualitative, PMID-cited) is listed as “shown to lighten UV-induced”.

For `O=c1cc(-c2ccc(O)cc2)oc2cc(O)cc(O)c12` [Apigenin], the “Anti-cancer / cytotoxic / antitumor properties” value ([1]; qualitative, PMID-cited) is listed as “exerts an antitumor effect in preclinical models”.

For `CCCCCCCCCCCCCCCC(=O)O` [Palmitic Acid], the “Wound healing / skin repair and skin health” value ([1]; qualitative, PMID-cited) is listed as “Palmitic Acid is a saturated fat essential to skin”.

For `COc1cc(/C=C/C(=O)CC(=O)/C=C/c2ccc(O)c(OC)c2)ccc1O` [curcumin], the “number of atypical/precancerous stem cells” value [2] is listed as “reduced”.

In the case of `COc1cc(CCC(C)=O)ccc1O` [zingerone], the diuretic effect ([1]; observed only at a dose of 30 mg/kg in normal mice, PMID 20606379) is given as “Oil, zingerone exhibited a mild diuretic effect”.

For `C=C1/C(=C\C=C2/CCC[C@]3(C)[C@@H]([C@H](C)/C=C/[C@@H](O)C4CC4)CC[C@@H]23)C[C@@H](O)C[C@@H]1O` [calcipotriene], the chronic plaque psoriasis ([1]; topical application, PMID 10753146) is listed as “topical application of calcipotriene improves”.

For `CCCCCCCC/C=C\CCCCCCCC(=O)O` [Oleic acid], the “lipophilic penetration of skin cells” value ([1]; "may enhance", PMID 21871866, PMID 2367329) is listed as “enhance lipophilic penetration of skin cells”, the “effect on the cell membrane allowing for drug permeability” value ([1]; PMID 2235880) is listed as 21871866) and creates a temporary disruption and the “targeted drug delivery across the skin” value ([1]; PMID 2514720) is listed as “facilitate targeted drug delivery across the skin”.

In the case of `O=C1CC[C@@]2(O)[C@H]3Cc4ccc(O)c5c4[C@@]2(CCN3CC2CC2)[C@H]1O5` [VLDN], the “tolerability of opioid-weaning methadone taper” value ([1]; <1 ug X <0.5 mg daily) is listed as “VLDN: boosting tolerability of opioid-weaning”.

For `CCCCCCCC/C=C\CCCCCCCC(=O)O` [Oleic acid (OA)], the Safety / toxicity ([1]; qualitative) is given as “lead to heart failure (PMID 28391879) though” and the “Skin penetration / delivery of ingredients across skin and membranes” value ([1]; qualitative, PMID-cited) is given as “Oleic acid (OA) enhances lipophilic penetration”.

In the case of `CC(C)=CCC/C(C)=C/CC/C(C)=C/CC/C(C)=C/CC/C(C)=C/CC/C(C)=C/CC/C(C)=C/CC1=C(C)C(=O)c2ccccc2C1=O` [MK7], the bone mineral density ([1]; by facilitating signaling cascades which improve translocation of calcium from the serum into the bony matrix, PMID 32244313) is given as “other vitamin K homologs. MK7 increases”.

In the case of `CCc1ccc(C)c2ccc(C)c-2c1` [chamazulene], the Stability [1] is listed as “are very unstable and are best preserved in an”.

In the case of `O=C1CC[C@@]2(O)[C@H]3Cc4ccc(O)c5c4[C@@]2(CCN3CC2CC2)[C@H]1O5` [ULDN], the “need for total amount of opioids following surgery” value [1, 3] is given as “(reduces the need for total amount of opioids” and the “side-effects of opioid-related treatment” value [1, 3] is given as “following surgery and ameliorating side-effects”.
